Reference: patent US12398128B2, “Physics-driven discovery of novel small therapeutic compounds for use as a BCL-2 inhibitor” (BAHCESEHIR UNIVERSITESI, priority 2021, dated 2025)

Test system: HCT-116 colon cancer cell line
Assay: MTT cell proliferation assay on HCT-116 cells
Assay type: cell-based
Description: For cell culture experiments various cancer cell lines, HCT-116 colon cancer, U87-MG glial tumor, MCF7 breast cancer cell lines were used. Cells were seeded with high glucose DMEM medium (Biosera) supplemented with 10% FBS (Gibco) and 1× penicillin/streptomycin (Multicell). Twenty-four hours prior to molecule treatment, 10,000 cells were seeded into each well of 24-well cell culture plates. Molecules were used by preparing 4 mM stock solution in DMSO (Amresco). For molecule treatment, molecule stock solutions were diluted in DMEM with 10% FBS and added onto cells in each corresponding well. Final concentration of vehicle DMSO was 2% at maximum. Therefore, the vehicle group in experiments only included maximum of 2% DMSO concentration. We calculated the number of cells to be seeded to make sure that none of the cells reaches more than 60% confluency during the treatment period, as higher plate confluency levels would slow down cell proliferation independently from the molecule treatment.
Values of half-maximal inhibitory concentration were (IC50) determined by MTT cell proliferation assays. Different concentrations of molecules ranging between 10^-9 to 10^-4 M were tested on HCT-116 cell lines with single treatment. 570 nm absorbance values were recorded and IC50 values were calculated by dose response-inhibition curves and nonlinear regression analysis on GraphPad Prism 8 software. For cell proliferation assays we performed five days experiments and repeated experiments at least three times with all cell lines. […] Therefore, three days results were presented. MTT analysis were performed on 24-well plates with initially 1×10^4 cells/well, grown overnight, and then treated with the selected molecules with different concentrations for at least 3 days. Following the initial incubation day, molecules were added and after incubation with MTT at 37° C. for 4 hours, formazan was solubilized with DMSO (Sigma-Aldrich, St. Louis, USA) and absorbance was measured at 570 nm. […] The IC50 value of compound of formula I was determined to be 22 μm (FIG. 1).

SMILES: O=C(CSc1nc2ccc(N3C(=O)c4ccccc4C3=O)cc2s1)c1ccc(-c2ccccc2)cc1 [compound of formula I]
- cell morphology of treated HCT-116 cells (HCT-116 cells treated with compound versus vehicle group): apoptotic cell structures
- proliferation of HCT-116 cells versus vehicle group (FIG. 1) (HCT-116 cells, MTT, cell viability over time, vehicle max 2% DMSO): reduced proliferation
- IC50 (Homo sapiens, 72 h, HCT-116 cells, single treatment, 10^-9 to 10^-4 M, 570 nm absorbance, three days results, read-out: IC50 (half-maximal inhibitory concentration), MTT cell proliferation assay): 22 µM
